Test results: patent US20110111014A1, “METHODS AND COMPOSITIONS FOR TREATMENT OF NEUROLOGICAL DISORDERS” (Parkinson's Institute, priority 2007, published 2011)
Structures can show the parent of a compound that is named as a salt.

Legend:
α-synuclein [1] = biological target: T1, α-synuclein (Homo sapiens, UniProt P37840); experiment: Disaggregation Thioflavin T assay; format: biochemical; conditions: polyphenol inhibitors
T1 construct: made in house; host or cells: E. coli BL21(DE3), plasmid pRK172/α-synuclein WT

α-synuclein [2] = biological target: T1, α-synuclein; experiment: Aggregation inhibition Thioflavin T assay (primary assay); format: biochemical; conditions: for lagtime for fibrillation: NINDS Collection 2 Library; for Thioflavin T signal / fibril formation by Thioflavin T fluorescence: compared with control samples (FIGS. 1-13)
α-synuclein [3] = biological target: T1, α-synuclein; experiment: Centrifugation to separate soluble and insoluble protein, SDS-PAGE; format: biochemical; conditions: for protein soluble after incubation, SDS PAGE of supernatant vs. total mixture: figure legends
α-synuclein [4] = biological target: T1, α-synuclein; experiment: Electron microscopy of fibrils (secondary assay); format: biochemical; conditions: figure legends
[5] = cited from earlier work
[6] = in vivo; cited from earlier work
α-synuclein [7] = biological target: T1, α-synuclein; experiment: Atomic force microscopy of fibrils; format: biochemical; conditions: 45 hours post treatment, compared to control
Description: Atomic force microscopy (AFM): AFM images were collected with a PicoScan LE system (Molecular Imaging, Phoenix, AZ) equipped with Acoustic AC mode (Tapping mode) for ex-situ experiment. Triangular cantilevers with 160 kHz resonance frequency and 2 N/m spring constant, a V-shaped cantilever NSC16/AIBS (MikroMasch), were used in tapping mode imaging. The imaging was carried out at a scan rate of 1 line/s with 512 data points per line, at a drive current of 10±4 Å. Aliquots of 10 ul of sample were placed on a freshly cleaved mica substrate. After incubation for at least 60 min, the substrate was rinsed with water several times to remove salt and loosely bound protein and dried with high-purity nitrogen. Kinetics of α-synuclein fibrillation can be visualized with the use of this technique, as exemplified in FIG. 46.

α-synuclein [8] = biological target: T1, α-synuclein; experiment: SEC HPLC, oligomer formation; format: biochemical; conditions: none with control

O=c1cc(-c2ccc(O)c(O)c2)oc2ccccc12 [3′,4′-dihydroxyflavone]
disaggregation of α-synuclein aggregates (α-synuclein [1]): best disaggregators

Cn1nnnc1SCC1=C(C(=O)O)N2C(=O)[C@@H](NC(=O)[C@H](O)c3ccccc3)[C@H]2SC1 [cefamandole sodium]
lagtime for fibrillation (α-synuclein [2]): Significant increases in

CC(C)NCC(O)c1ccc(O)c(O)c1 (stereo not shown) [isoproterenol]
Thioflavin T signal / fibril formation by Thioflavin T fluorescence (α-synuclein [2]): very low
protein in the supernatant after centrifugation (α-synuclein [3]; FIG. 1B, control samples <15%): > 90%
fibril formation by EM (α-synuclein [4]): Few fibrils

O=c1c(-c2ccc(O)c(O)c2)coc2cc(O)ccc12 [7,3′,4′-trihydroxyisoflavone]
disaggregation of α-synuclein aggregates (α-synuclein [1]): best disaggregators

O=c1cc(-c2cccc(O)c2O)oc2ccc(O)cc12 [6,2′,3′-trihydroxyflavone]
disaggregation of α-synuclein aggregates (α-synuclein [1]): best disaggregators

Oc1cccc(O)c1O [pyrogallol]
disaggregation of α-synuclein aggregates (α-synuclein [1]): best disaggregators

O=C(O[C@@H]1Cc2c(O)cc(O)cc2O[C@@H]1c1cc(O)c(O)c(O)c1)c1cc(O)c(O)c(O)c1 [epigallocatechin gallate]
disaggregation of α-synuclein aggregates (α-synuclein [1]): best disaggregators

N[C@@H](Cc1ccc(O)c(O)c1)C(=O)O [l-dopa, (−)-L-a-amino-b-(3,4-dihydroxybenzene)propanoic acid]
solubility in water [5]: slightly soluble
crossing of the blood-brain barrier [6]: does cross

N.N.[Cl][Pt][Cl] [cisplatin]
Thioflavin T signal / fibril formation by Thioflavin T fluorescence (α-synuclein [2]): negligible fibril formation
fibril formation by EM (α-synuclein [4]): negligible fibril formation

pyrogallin
Thioflavin T signal / fibril formation by Thioflavin T fluorescence (α-synuclein [2]): negligible fibril formation
protein soluble after incubation, SDS PAGE of supernatant vs. total mixture (α-synuclein [3]): most protein still soluble
fibril formation by EM (α-synuclein [4]): negligible fibril formation

O=c1cc(-c2ccc(O)c(O)c2)oc2cc(O)cc(O)c12 [luteolin]
disaggregation of α-synuclein aggregates (α-synuclein [1]): best disaggregators

O=c1cc(-c2cc(O)c(O)c(O)c2)oc2cc(O)ccc12 [7,3′,4′,5′-tetrahydroxyflavone]
disaggregation of α-synuclein aggregates (α-synuclein [1]): best disaggregators

O=c1c(O)c(-c2ccc(O)c(O)c2)oc2c(O)c(O)cc(O)c12 [3,5,7,8,3′,4′-hexahydroxyflavone]
disaggregation of α-synuclein aggregates (α-synuclein [1]): best disaggregators

NCCc1ccc(O)c(O)c1 [dopamine]
crossing of the blood-brain barrier [6]: does not cross

O=c1c(O)c(-c2ccc(O)c(O)c2)oc2ccccc12 [3′,4′-dihydroxyflavonol]
disaggregation of α-synuclein aggregates (α-synuclein [1]): best disaggregators

Cc1c(OCC(F)(F)F)ccnc1C[S+]([O-])c1nc2ccccc2[nH]1 (stereo not shown) [lansoprazole]
lagtime for fibrillation (α-synuclein [2]): Significant increases in

O=C1c2ccccc2C(=O)c2c(O)c(O)cc(O)c21 [purpurin]
lagtime for fibrillation (α-synuclein [2]): Significant increases in

O=C1c2ccc(O)c(O)c2C(=O)c2c(O)ccc(O)c21 [quinalizarin]
Thioflavin T signal / fibril formation by Thioflavin T fluorescence (α-synuclein [2]): negligible fibril formation
protein soluble after incubation, SDS PAGE of supernatant vs. total mixture (α-synuclein [3]): most protein still soluble
fibril formation by EM (α-synuclein [4]): negligible fibril formation

NC(=O)c1ccc[n+]([C@@H]2O[C@H](COP(=O)([O-])OP(=O)(O)OC[C@H]3O[C@@H](n4cnc5c(N)ncnc54)[C@H](OP(=O)(O)O)[C@@H]3O)[C@@H](O)[C@H]2O)c1 [sodium beta-nicotinamide adenine dinucleotide phosphate]
lagtime for fibrillation (α-synuclein [2]): Significant increases in

O=c1c(O)c(-c2ccc(O)c(O)c2)oc2cc(O)ccc12 [fisetin]
disaggregation of α-synuclein aggregates (α-synuclein [1]): best disaggregators

O=C(Cc1cccs1)N[C@@H]1C(=O)N2C(C(=O)[O-])=C(C[n+]3ccccc3)CS[C@H]12 [cephaloridine]
lagtime for fibrillation (α-synuclein [2]): Significant increases in

CC(CCc1ccc(O)cc1)NCCc1ccc(O)c(O)c1 (stereo not shown) [dobutamine]
Thioflavin T signal / fibril formation by Thioflavin T fluorescence (α-synuclein [2]): negligible fibril formation
protein soluble after incubation, SDS PAGE of supernatant vs. total mixture (α-synuclein [3]): most protein still soluble
fibril formation by EM (α-synuclein [4]): negligible fibril formation

chlorophyllide Cu complex Na salt
Thioflavin T signal / fibril formation by Thioflavin T fluorescence (α-synuclein [2]): negligible fibril formation
protein soluble after incubation, SDS PAGE of supernatant vs. total mixture (α-synuclein [3]): most protein still soluble
fibril formation by EM (α-synuclein [4]): negligible fibril formation

O=c1cc(-c2ccccc2)oc2cc(O)c(O)c(O)c12 [baicalein]
protein soluble after incubation, SDS PAGE of supernatant vs. total mixture (α-synuclein [3]): most protein still soluble
fibrils with atomic force microscopy (α-synuclein [7]): very few fibrils

CN1CCc2cccc3c2[C@H]1Cc1ccc(O)c(O)c1-3 [apomorphine, 6αβ-Aporphine-10,11-diol hydrochloride hemihydrate]
Thioflavin T signal / fibril formation by Thioflavin T fluorescence (α-synuclein [2]): very low
protein soluble after incubation, SDS PAGE of supernatant vs. total mixture (α-synuclein [3]): most protein still soluble
oligomer formation by SEC HPLC (α-synuclein [8]): oligomer formation
fibril formation by EM (α-synuclein [4]): negligible fibril formation

CCCCCCCC/C=C/CCCCCCCCOP(=O)([O-])OCC[N+](C)(C)C [elaidyphosphocholine (antineoplastic), elaidylphosphocholine]
Thioflavin T signal / fibril formation by Thioflavin T fluorescence (α-synuclein [2]): negligible fibril formation
protein soluble after incubation, SDS PAGE of supernatant vs. total mixture (α-synuclein [3]): most protein still soluble
fibril formation by EM (α-synuclein [4]): negligible fibril formation

O=c1cc(-c2cccc(O)c2O)oc2ccccc12 [2′,3′-dihydroxyflavone]
disaggregation of α-synuclein aggregates (α-synuclein [1]): best disaggregators

C[C@@](Cc1ccc(O)c(O)c1)(NN)C(=O)O [carbidopa]
Thioflavin T signal / fibril formation by Thioflavin T fluorescence (α-synuclein [2]): negligible fibril formation
protein soluble after incubation, SDS PAGE of supernatant vs. total mixture (α-synuclein [3]): most protein still soluble
fibril formation by EM (α-synuclein [4]): negligible fibril formation

CCCCOc1ccc(C(=O)CCN2CCCCC2)cc1 [dyclonine hydrochloride]
lagtime for fibrillation (α-synuclein [2]): Significant increases in

O=c1cc(-c2cc(O)c(O)c(O)c2)oc2cc(O)cc(O)c12 [5,7,3′,4′,5′-pentahydroxyflavone]
disaggregation of α-synuclein aggregates (α-synuclein [1]): best disaggregators

c1ccc(N=Nc2ccccc2)cc1 [azobenzene]
lagtime for fibrillation (α-synuclein [2]): Significant increases in

CCCCOc1ccc(OCCCN2CCOCC2)cc1 [pramoxine hydrochloride]
lagtime for fibrillation (α-synuclein [2]): Significant increases in
